Reference: US20240208997A1, “CYCLIC BENZIMIDAZOLE DERIVATIVES AS CGAS INHIBITORS” (Boehringer Ingelheim International GmbH, priority 2022, published 2024)

System: IFN induction in virus-stimulated THP1 cells
Experiment: Human cGAS cell assay, virus-stimulated THP1-Dual cells (THP1(vir) IC50)
Assay type: cell-based
Conditions: THP-1, 18 h, Table 1, baculovirus-stimulated THP1-Dual cells, Lucia luciferase, 18 h, read-out: THP(vir) IC50
Source text: 6.2 Method: Human cGAS Cell Assay and cGAMP Stimulated Counter Cell Assay (THP1(vir) IC50 and THP1(cGAMP) IC50)
THP1-Dual™ cells (InvivoGen #thpd-nfis) expressing IRF dependent Lucia luciferase reporter were used as basis for both assays. For the detection of cellular cGAS activity cells were stimulated by a baculovirus (pFastbac-1, Invitrogen, no coding insert) infection that delivers the cGAS enzyme stimulating double-stranded DNA (measurement of THP1(vir) IC50).
Pathway activity was monitored by measuring the Lucia luciferase activity induced by either DNA stimulated cGAS enzyme activity (measurement of THP1(vir) IC50) or by cGAMP directly (measurement of THP1(cGAMP) IC50, counter assay).
Compounds were delivered in 10 mM DMSO solution, serially diluted and transferred to the 384 well assay plate (Greiner #781201) using an Echo acoustic dispenser. Typically, 8 concentrations were used with the highest concentration at 10 μM in the final assay volume followed by ^˜1:5 dilution steps. DMSO concentration was set to 1% in the final assay volume. The 384 well assay plate contained […] (column 1-22), and DMSO in column 23 and 24.
Cells, cultivated according to manufacturer conditions, were harvested by centrifugation at 300 g/10 min and were then resuspended and diluted to 1.66E5 cells/ml in fresh cell culture medium (RPMI 1640 (Gibco #A10491-01), 10% FCS (Gibco #10500), 1× GlutaMax (Gibco #35050-061), 1× Pen/Strep solution (Gibco #15140-122), 100 μg/ml Normocin (InvivoGen #ant-nr), 100 μg/ml Zeocin (InvivoGen #ant-zn), 10 μg/ml Blasticidin S (Life Technologies #A11139-03)). The baculovirus solution was then added 1:200 (have varied according to virus batch) to the cells (measurement of THP1(vir) IC50).
30 μL of the cell/virus-mix were added to each well of the compound plate from column 1-23 via MultiDrop Combi dispenser (5000 cells/well). In column 24, 30 μl/5000 cells/well without virus were added as a low control.
The plates were then incubated for 18 h at 37° C. in a humidified incubator.
Following that, 15 μL of QuantiLuc detection reagent (InvivoGen #rep-qlcg5) were added to each well using a MultiDrop Combi. Measurement was done immediately after the addition using an EnVision reader (US-luminescence read-mode).
Data Evaluation and Calculation:
For data evaluation and calculation, the measurement of the low control was set as 0% control and the measurement of the high control was set as 100% control. The IC50 values were calculated using the standard 4 parameter logistic regression formula. Calculation: [y=(a−d)/(1+(x/c)^b)+d], a=low value, d=high value; x=conc M; c=IC50 M; b=slope

Structure (SMILES) | IC50
C[C@H]1CN2CC[C@@H]1n1c(nc3ccccc31)O[C@H]1C[C@@H](C(=O)O)N(C1)c1nc(nc3c1oc1ccccc13)CCOCCOC2=O (mixture of isomers) [Example 12.01] | 240 nM
C[C@H]1CN2CC[C@@H]1n1c(nc3ccccc31)O[C@H]1C[C@@H](C(=O)O)N(C1)c1nc(nc3c1oc1ccccc13)CCCCCCC2=O (racemic) [Example 1.24] | 170 nM
C[C@H]1CN2CC[C@@H]1n1c(nc3cccc(Cl)c31)O[C@H]1C[C@@H](C(=O)O)N(C1)c1nc(nc3c1oc1ccccc13)CC(=O)NCCCC2=O (racemic) [Example 2.01, (12S,14S)-4-chloro-37-methyl-29,34-dioxo-11,18-dioxa-2,9,15,26,30,35,40-heptaazaoctacyclo[33.2.2.1^12,15.1^16,27.0^2,10.0^3,8.0^17,25.0^19,24]hentetraconta-3,5,7,9,16(40),17(25),19(24),20,22,26-decaene-14-carboxylic acid] | 11 nM
C[C@@H]1CN2CC[C@H]1n1c(nc3cc(Cl)ccc31)O[C@H]1C[C@@H](C(=O)O)N(C1)c1nc(nc3c1oc1ccccc13)CCOCCCC2=O [Example 1.01] | 39 nM
C[C@H]1CN2CC[C@@H]1n1c(nc3cc(Cl)ccc31)O[C@H]1C[C@@H](C(=O)O)N(C1)c1nc(nc3c1oc1ccccc13)CCOCCCC2=O [Example 1.02] | 2.8 nM
O=C(O)[C@@H]1C[C@H]2CN1c1nc(nc3c1oc1ccccc13)CCOCCCC(=O)N1CCC(CC1)n1c(nc3cc(F)ccc31)O2 [Example 1.03] | 110 nM
O=C(O)[C@@H]1C[C@H]2CN1c1nc(nc3c1oc1ccccc13)CCOCCCC(=O)N1CCC(CC1)n1c(nc3ccc(F)cc31)O2 [Example 1.04] | 44 nM
C[C@H]1CN2CC[C@@H]1n1c(nc3ccccc31)O[C@H]1C[C@@H](C(=O)O)N(C1)c1nc(nc3c1oc1ccccc13)CCOCCCC2=O [Example 1.05] | 2.9 nM
C[C@H]1CN2CC[C@@H]1n1c(nc3ccc(Cl)cc31)O[C@H]1C[C@@H](C(=O)O)N(C1)c1nc(nc3c1oc1ccccc13)CCOCCCC2=O [Example 1.06] | 4.1 nM
C[C@H]1CN2CC[C@@H]1n1c(nc3ccccc31)O[C@H]1C[C@@H](C(=O)O)N(C1)c1nc(nc3c1oc1cc(Cl)ccc13)CCOCCCC2=O [Example 1.07] | 6.5 nM
C[C@H]1CN2CC[C@@H]1n1c(nc3cc(Cl)ccc31)O[C@H]1C[C@@H](C(=O)O)N(C1)c1nc(nc3c1oc1cc(Cl)ccc13)CCOCCCC2=O [Example 1.08] | 2.4 nM
C[C@H]1CN2CC[C@@H]1n1c(nc3cc(Cl)ccc31)O[C@H]1C[C@@H](C(=O)O)N(C1)c1nc(nc3c1oc1cc(F)ccc13)CCCCOCC2=O [Example 1.09] | 4.3 nM
C[C@H]1CN2CC[C@@H]1n1c(nc3ccc(Cl)cc31)O[C@H]1C[C@@H](C(=O)O)N(C1)c1nc(nc3c1oc1ccccc13)COCCCCC2=O [Example 1.10] | 13 nM
C[C@H]1CN2CC[C@@H]1n1c(nc3cc(Cl)ccc31)O[C@H]1C[C@@H](C(=O)O)N(C1)c1nc(nc3c1oc1ccccc13)COCCOCC2=O [Example 1.11] | 3.6 nM
C[C@H]1CN2CC[C@@H]1n1c(nc3cc(Cl)ccc31)O[C@H]1C[C@@H](C(=O)O)N(C1)c1nc(nc3c1oc1ccccc13)C(F)(F)CCCCCC2=O [Example 1.12] | 2.2 nM
C[C@H]1CN2CC[C@@H]1n1c(nc3ccc(Cl)cc31)O[C@H]1C[C@@H](C(=O)O)N(C1)c1nc(nc3c1oc1ccccc13)C(F)(F)CCCCCC2=O [Example 1.13] | 4.9 nM
C[C@H]1CN2CC[C@@H]1n1c(nc3ccccc31)O[C@H]1C[C@@H](C(=O)O)N(C1)c1nc(nc3c1oc1cc(F)ccc13)C(F)(F)CCCCCC2=O [Example 1.14] | 1.5 nM
C[C@H]1CN2CC[C@@H]1n1c(nc3cc(F)ccc31)O[C@H]1C[C@@H](C(=O)O)N(C1)c1nc(nc3c1oc1cc(F)ccc13)C(F)(F)CCCCCC2=O [Example 1.15] | 7.1 nM
C[C@H]1CN2CC[C@@H]1n1c(nc3ccccc31)O[C@H]1C[C@@H](C(=O)O)N(C1)c1nc(nc3c1oc1cc(Cl)ccc13)C(F)(F)CCCCCC2=O [Example 1.16] | 9.7 nM
C[C@H]1CN2CC[C@@H]1n1c(nc3ccccc31)O[C@H]1C[C@@H](C(=O)O)N(C1)c1nc(nc3c1oc1ccccc13)C(F)(F)CCCCC(F)(F)C2=O [Example 1.17] | 13 nM
C[C@H]1CN2CC[C@@H]1n1c(nc3cc(F)ccc31)O[C@H]1C[C@@H](C(=O)O)N(C1)c1nc(nc3c1oc1ccccc13)C(F)(F)CCCCC(F)(F)C2=O [Example 1.18] | 37 nM

Structure (SMILES) | IC50
C[C@H]1CN2CC[C@@H]1n1c(nc3ccccc31)O[C@H]1C[C@@H](C(=O)O)N(C1)c1nc(nc3c1oc1ccccc13)CCCCCC2=O [Example 1.19] | 40 nM
CC1CCc2nc(c3oc4ccccc4c3n2)N2C[C@H](C[C@H]2C(=O)O)Oc2nc3cc(Cl)ccc3n2[C@H]2CCN(C[C@@H]2C)C(=O)CCO1 (some centres unmarked) [Example 1.20] | 13 nM
C[C@H]1CN2CC[C@@H]1n1c(nc3cc(Cl)ccc31)O[C@H]1C[C@@H](C(=O)O)N(C1)c1nc(nc3c1oc1ccccc13)C(F)(F)CCCOCC2=O [Example 1.21] | 1.9 nM
C[C@H]1CN2CC[C@@H]1n1c(nc3ccccc31)O[C@H]1C[C@@H](C(=O)O)N(C1)c1nc(nc3c1oc1cc(Cl)ccc13)C(F)(F)CCCOCC2=O [Example 1.22] | 1.5 nM
C[C@H]1CN2CC[C@@H]1n1c(nc3ccccc31)O[C@H]1C[C@@H](C(=O)O)N(C1)c1nc(nc3c1oc1ccccc13)CCCC(C)(C)CCC2=O [Example 1.23] | 190 nM
C[C@H]1CCCCC(=O)N2CCC(CC2)n2c(nc3ccccc32)O[C@H]2C[C@@H](C(=O)O)N(C2)c2nc1nc1c2oc2ccccc21 [Example 1.25] | 8 nM
C[C@@H]1CCCCC(=O)N2CCC(CC2)n2c(nc3ccccc32)O[C@H]2C[C@@H](C(=O)O)N(C2)c2nc1nc1c2oc2ccccc21 [Example 1.26] | 5.5 nM
Cc1cccc2c1nc1n2[C@@H]2CCN(C[C@H]2C)C(=O)CCCCCC(F)(F)c2nc(c3oc4ccccc4c3n2)N2C[C@H](C[C@H]2C(=O)O)O1 [Example 1.27] | 180 nM
Cc1cccc2c1nc1n2[C@H]2CCN(C[C@@H]2C)C(=O)CCCCCC(F)(F)c2nc(c3oc4ccccc4c3n2)N2C[C@H](C[C@H]2C(=O)O)O1 [Example 1.28] | 15 nM
C[C@H]1CN2CC[C@@H]1n1c(nc3ccccc31)O[C@H]1C[C@@H](C(=O)O)N(C1)c1nc(nc3c1oc1ccccc13)C(F)(F)COCCCCC2=O [Example 3.01] | 0.44 nM
C[C@H]1CN2CC[C@@H]1n1c(nc3ccccc31)O[C@H]1C[C@@H](C(=O)O)N(C1)c1nc(nc3c1oc1ccccc13)C(F)(F)COCCCC2=O [Example 4.01] | 0.69 nM
O=C(O)[C@@H]1C[C@H]2CN1c1nc(nc3c1oc1ccccc13)COCCCCCC(=O)N1CCC(CC1)n1c(nc3cccc(F)c31)O2 [Example 5.01] | 38 nM
C[C@H]1CN2CC[C@@H]1n1c(nc3cc(Cl)ccc31)O[C@H]1C[C@@H](C(=O)O)N(C1)c1nc(nc3c1oc1ccccc13)C(F)(F)OCCCCC2=O [Example 6.01] | 3.1 nM
C[C@@H]1CC(=O)N2CCC(CC2)n2c(nc3ccccc32)O[C@H]2C[C@@H](C(=O)O)N(C2)c2nc(nc3c2oc2ccccc23)CCCO1 [Example 7.01] | 150 nM
O=C(O)[C@@H]1C[C@H]2CN1c1nc(nc3c1oc1ccccc13)COCCCC(F)(F)C(=O)N1CCC(CC1)n1c(nc3ccccc31)O2 [Example 8.01] | 39 nM
O=C(O)[C@@H]1C[C@H]2CN1c1nc(nc3c1oc1ccccc13)CCCOCC(=O)N1CCC(CC1)n1c(nc3ccccc31)O2 [Example 9.01] | 400 nM
C[C@@H]1CN2CC[C@H]1n1c(nc3ccccc31)O[C@H]1C[C@@H](C(=O)O)N(C1)c1nc(nc3c1oc1ccccc13)CCCCCOC2=O [Example 10.01] | 180 nM
C[C@H]1CN2CC[C@@H]1n1c(nc3ccccc31)O[C@H]1C[C@@H](C(=O)O)N(C1)c1nc(nc3c1oc1ccccc13)CCCCCOC2=O [Example 10.02] | 64 nM
O=C(O)[C@@H]1C[C@H]2CN1c1nc(nc3c1oc1ccccc13)OCCCCOC(=O)N1CCC(CC1)n1c(nc3ccccc31)O2 [Example 11.01] | 180 nM
C[C@H]1CN2CC[C@@H]1n1c(nc3ccccc31)O[C@H]1C[C@@H](C(=O)O)N(C1)c1nc(nc3c1oc1ccccc13)CCCCCN(C)C2=O [Example 13.01] | 500 nM
